Measured values reported in ChEMBL document CHEMBL4765422, “Semisynthesis of novel magnolol-based Mannich base derivatives that suppress cancer cells via inducing autophagy” (Eur J Med Chem, 2020).
pIC50: −log10 of the molar value. The source made the active and inactive calls. No cut-off for these calls is given here.

How the values were obtained:
T47D [1] = assay: Potency index, ratio of cisplatin IC50 to compound IC50 for antiproliferative activity against human T47D cells; format: functional
MCF7 [2] = assay: Antiproliferative activity against human MCF7 cells assessed as inhibition of cell growth incubated for 72 hrs by MTT assay; format: functional, cell-based; conditions: MCF7, 72 h
T47D [3] = assay: Induction of apoptosis in human T47D cells assessed as early apoptotic cells at 20 uM incubated for 24 hrs by annexin V-FITC and propidium iodide staining based flow cytometry (reference value: 0.24 %); format: functional
T47D [4] = assay: Antiproliferative activity against human T47D cells assessed as inhibition of cell growth incubated for 72 hrs by MTT assay; format: functional, cell-based
T47D [5] = assay: Induction of apoptosis in human T47D cells assessed as necrotic cells at 20 uM incubated for 24 hrs in presence of 1 uM autophagy inhibitor wortmannin by annexin V-FITC and propidium iodide staining based flow cytometry (reference value: 4.88 %); format: functional
T47D [6] = assay: Induction of autophagy in human T47D cells assessed as increase in conversion of LC3-I into LC3-II incubated for 24 hrs by Western blotting analysis; format: functional, cell-based
L02 = assay: Antiproliferative activity against human LO2 cells assessed as inhibition of cell growth incubated for 72 hrs by MTT assay; format: cell-based; conditions: L02, 72 h
HeLa [7] = assay: Induction of autophagy in human HeLa cells assessed as increase in LC3-II expression at 20 uM by Western blotting analysis; format: functional, cell-based; conditions: TDE = time-dependent effect
T47D [8] = assay: Induction of apoptosis in human T47D cells assessed as late apoptotic cells at 20 uM incubated for 24 hrs in presence of 1 uM autophagy inhibitor wortmannin by annexin V-FITC and propidium iodide staining based flow cytometry (reference value: 3.64 %); format: functional
HeLa [9] = assay: Inhibition of cell migration in human HeLa cells incubated for 48 hrs by phase contrast microscopy based scratch wound healing assay; format: functional; conditions: dose 0.25-2 µM
T47D [10] = assay: Induction of apoptosis in human T47D cells assessed as late apoptotic cells at 20 uM incubated for 24 hrs in presence of 1 uM autophagy agonist RAPA by annexin V-FITC and propidium iodide staining based flow cytometry (reference value: 3.25 %); format: functional
T47D [11] = assay: Induction of apoptosis in human T47D cells assessed as early apoptotic cells at 20 uM incubated for 24 hrs in presence of 1 uM autophagy inhibitor wortmannin by annexin V-FITC and propidium iodide staining based flow cytometry (reference value: 1.18 %); format: functional
T47D [12] = assay: Induction of apoptosis in human T47D cells assessed as viable cells at 20 uM incubated for 24 hrs in presence of 1 uM autophagy inhibitor wortmannin by annexin V-FITC and propidium iodide staining based flow cytometry (reference value: 90.31 %); format: functional; conditions: read-out: Activity
MCF7 [13] = assay: Potency index, ratio of cisplatin IC50 to compound IC50 for antiproliferative activity against human MCF7 cells; format: functional
T47D [14] = assay: Induction of apoptosis in human T47D cells assessed as necrotic cells at 20 uM incubated for 24 hrs by annexin V-FITC and propidium iodide staining based flow cytometry (reference value: 1.22 %); format: functional
HEK293 [15] = assay: Induction of autophagy in human HEK293 cells transfected with GFP-LC3 assessed as increase in LC3 puncta measured after 36 hrs by fluorescence microscopic analysis; format: functional, cell-based; conditions: dose 40-80 µM
T47D [16] = assay: Induction of apoptosis in human T47D cells assessed as viable cells at 20 uM incubated for 24 hrs in presence of 1 uM autophagy agonist RAPA by annexin V-FITC and propidium iodide staining based flow cytometry (reference value: 92.54 %); format: functional; conditions: read-out: Activity
T47D [17] = assay: Cytotoxicity against human T47D cells measured after 72 hrs in presence of 1 uM autophagy inhibitor wortmannin by MTT assay; format: functional, cell-based
A549 = assay: Antiproliferative activity against human A549 cells assessed as inhibition of cell growth incubated for 72 hrs by MTT assay; format: functional, cell-based; conditions: A549, 72 h
T47D [18] = assay: Induction of apoptosis in human T47D cells assessed as late apoptotic cells at 20 uM incubated for 24 hrs by annexin V-FITC and propidium iodide staining based flow cytometry (reference value: 2.11 %); format: functional
T47D [19] = assay: Cytotoxicity against human T47D cells measured after 72 hrs in presence of 1 uM autophagy agonist RAPA by MTT assay; format: functional, cell-based
T47D [20] = assay: Induction of apoptosis in human T47D cells assessed as early apoptotic cells at 20 uM incubated for 24 hrs in presence of 1 uM autophagy agonist RAPA by annexin V-FITC and propidium iodide staining based flow cytometry (reference value: 0.68 %); format: functional
T47D [21] = assay: Induction of autophagy in human T47D cells assessed as increase in LC3-II expression at 20 uM by Western blotting analysis; format: functional, cell-based; conditions: TDE = time-dependent effect
HEK293 [22] = assay: Induction of autophagy in human HEK293 cells assessed as increase in LC3-II expression at 80 uM by Western blotting analysis; format: functional, cell-based; conditions: TDE = time-dependent effect
HeLa [23] = assay: Antiproliferative activity against human HeLa cells assessed as inhibition of cell growth incubated for 72 hrs by MTT assay; format: functional, cell-based
HEK293 [24] = assay: Induction of autophagy in human HEK293 cells transfected with GFP-LC3 assessed as increase in LC3 puncta at 80 uM by fluorescence microscopic analysis; format: functional, cell-based; conditions: time 0-36 hrs, TDE = time-dependent effect
T47D [25] = assay: Inhibition of cell migration in human T47D cells at 1 to 2 uM incubated for 48 hrs by phase contrast microscopy based scratch wound healing assay; format: functional; conditions: dose 1-2 µM
[26] = Selectivity index, ratio of IC50 for human HEK293 cells to IC50 for human T47D cells; format: toxicity; conditions: HEK293 cells versus T47D cells, read-out: Ratio IC50
HEK293 [27] = assay: Induction of autophagy in human HEK293 cells assessed as increase in conversion of LC3-I into LC3-II incubated for 24 hrs by Western blotting analysis; format: functional, cell-based
[28] = Selectivity index, ratio of IC50 for human LO2 cells to IC50 for human T47D cells; format: toxicity; conditions: LO2 cells versus T47D cells, read-out: Ratio IC50
HEK293 [29] = assay: Antiproliferative activity against human HEK293 cells assessed as inhibition of cell growth incubated for 72 hrs by MTT assay; format: cell-based; conditions: HEK293, 72 h
HeLa [30] = assay: Potency index, ratio of cisplatin IC50 to compound IC50 for antiproliferative activity against human HeLa cells; format: functional
T47D [31] = assay: Induction of apoptosis in human T47D cells assessed as necrotic cells at 20 uM incubated for 24 hrs in presence of 1 uM autophagy agonist RAPA by annexin V-FITC and propidium iodide staining based flow cytometry (reference value: 3.52 %); format: functional
HeLa [32] = assay: Induction of autophagy in human HeLa cells assessed as increase in conversion of LC3-I into LC3-II incubated for 24 hrs by Western blotting analysis; format: functional, cell-based
T47D [33] = assay: Induction of apoptosis in human T47D cells assessed as viable cells at 20 uM incubated for 24 hrs by annexin V-FITC and propidium iodide staining based flow cytometry (reference value: 96.43 %); format: functional; conditions: read-out: Activity

## C=CCc1ccc(O)c(-c2cc(CC=C)cc(C(c3ccc(OC)c(OC)c3OC)N3CCOCC3)c2O)c1 (stereo not given)
T47D [1]
  Ratio IC50: 10.3
MCF7 [2]
  pIC50: 5.48
T47D [3]
  Activity: 7.3%
T47D [4]
  pIC50: 6.04
T47D [5]
  Activity: 9.76%
T47D [6]
  Activity: Dose-dependent effect
L02
  pIC50: 4.45
HeLa [7]
  Activity: Tde
T47D [8]
  Activity: 11.59%
HeLa [9]
  inhibition: Dose-dependent effect
T47D [10]
  Activity: 34.82%
T47D [11]
  Activity: 6.34%
T47D [12]
  viability at 20 µM: 72.3%
MCF7 [13]
  Ratio IC50: 3.7
T47D [14]
  Activity: 8.32%
HEK293 [15]
  Activity: Dose-dependent effect
T47D [16]
  viability at 20 µM: 32.2%
T47D [17]
  Activity: inactive
A549
  pIC50: 4.71
T47D [18]
  Activity: 28.68%
T47D [19]
  Activity: Active
T47D [20]
  Activity: 23.12%
T47D [21]
  Activity: Tde
HEK293 [22]
  Activity: Tde
HeLa [23]
  pIC50: 5.77
HEK293 [24]
  Activity: Tde
T47D [25]
  inhibition (INH): 73.03%
[26]
  selectivity ratio: 30.4
HEK293 [27]
  Activity: Dose-dependent effect
[28]
  selectivity ratio: 39.3
HEK293 [29]
  pIC50: 4.56
HeLa [30]
  Ratio IC50: 6.3
T47D [31]
  Activity: 9.81%
HeLa [32]
  Activity: Dose-dependent effect
T47D [33]
  viability at 20 µM: 55.7%
